Results from US8735620B2, “Processes for preparing (E)-styrylbenzylsulfone compounds and uses thereof for treating proliferative disorders” (priority 2008, dated 2014).
Read-outs that look alike come from different tables or passages of the source.

Columns and labels:
[1] = test system: OV-CAR-3; experiment: Tumor cell killing, OV-CAR-3; type: cell-based, human; conditions: OV-CAR-3, OVARIAN; read-out: Tumor cell killing (IC50) concentration
Text: (§1) Tissue Culture and Reagents: Paclitaxel was purchased from Sigma. Cell lines were purchased from ATCC. Cell lines were routinely grown in DMEM or RPM1 (CellGro) supplemented with 10% fetal bovine serum (Atlas) and 1 unit/mL penicillin-streptomycin (Gibco).

[2] = test system: AGS; experiment: Tumor cell killing, AGS; type: cell-based, human; conditions: GASTRIC, read-out: Tumor cell killing (IC50) concentration
Text: as §1

[3] = test system: SK-MEL-28; experiment: Tumor cell killing, SK-MEL-28; type: cell-based, human; conditions: SK-MEL-28, MELANOMA; read-out: Tumor cell killing (IC50) concentration
Text: as §1

[4] = test system: MOLT-4; experiment: Tumor cell killing, MOLT-4; type: cell-based, human; conditions: MOLT-4, T-lymphoblastic: ALL; read-out: Tumor cell killing (IC50) concentration
[5] = test system: BT20, DU145, H157 and DLD1 cell lines; experiment: In vitro cytotoxicity, four human tumor cell lines (SAR discussion); type: cell-based
Experimental: A number of tumor cell lines were tested using a dose response end point assay system. The cells were grown in either DMEM or RPMI supplemented with 10% fetal bovine serum and 1 unit/mL Penicillin-Streptomycin solution. The tumor cells were plated into 6 well dishes at a cell density of 1.0×10^5 cells/mL/well and compounds were added 24 h later at various concentrations. Cell counts were determined from duplicate wells after 96 h of treatment. The total number of viable cells was determined by trypan blue exclusion.
Following the synthesis of this group of compounds, their in vitro cytotoxicity was assessed using four different human tumor cell lines derived from human breast (BT20), prostate (DU145), lung (H157) and colorectal (DLD1) cancers. […] In a majority of the compounds described here, a methoxy group was kept constant at the 4th position on the aromatic ring of the benzyl moiety.

[6] = test system: DU145 (human prostate tumor cell line); experiment: Cytotoxicity assay (trypan blue exclusion, 96 h), DU145; type: cell-based
Text: as §1

[7] = test system: BT20 (human breast tumor cell line); experiment: Cytotoxicity assay (trypan blue exclusion, 96 h), BT20; type: cell-based; conditions: BT20, 96 h treatment
Text: as §1

[8] = test system: COLO-205; experiment: Tumor cell killing, COLO-205; type: cell-based, human; conditions: COLO-205, COLO-RECTAL; read-out: Tumor cell killing (IC50) concentration
Text: as §1

[9] = test system: mantle cell lymphoma cell lines; conditions: Park et al Oncogene 2007; cited from earlier work
[10] = test system: DLD1 (human colorectal tumor cell line); experiment: Cytotoxicity assay (trypan blue exclusion, 96 h), DLD1; type: cell-based
Text: as §1

[11] = test system: MCF-7; experiment: Tumor cell killing, MCF-7; type: cell-based, human; conditions: MCF-7, BREAST (ER+); read-out: Tumor cell killing (IC50) concentration
Text: as §1

[12] = test system: N417; experiment: Tumor cell killing, N417; type: cell-based, human; conditions: N417, SCLC; read-out: Tumor cell killing (IC50) concentration
Text: as §1

[13] = test system: PC-3; experiment: Tumor cell killing, PC-3; type: cell-based, human; conditions: PC-3, PROSTATE (AR+); read-out: Tumor cell killing (IC50) concentration
Text: as §1

[14] = test system: H157 (human lung tumor cell line); experiment: Cytotoxicity assay (trypan blue exclusion, 96 h), H157; type: cell-based
Text: as §1

[15] = test system: Namalwa; experiment: Tumor cell killing, Namalwa; type: cell-based, human; conditions: Burkitt's Lymphoma (B-cell), read-out: Tumor cell killing (IC50) concentration
[16] = test system: Daudi; experiment: Tumor cell killing, Daudi; type: cell-based, human; conditions: Burkitt's Lymphoma (B-cell), read-out: Tumor cell killing (IC50) concentration
[17] = test system: panel of 60 human cancer cell-lines; experiment: NCI Developmental Therapeutics Program panel of 60 human cancer cell-lines; type: cell-based; conditions: at nanomolar concentrations, including drug-resistant cell-lines
[18] = test system: H187; experiment: Tumor cell killing, H187; type: cell-based, human; conditions: H187, SCLC; read-out: Tumor cell killing (IC50) concentration
Text: as §1

[19] = test system: MES-SA; experiment: Tumor cell killing, MES-SA (parental uterine sarcoma); type: cell-based, human; conditions: MES-SA, SARCOMA; read-out: Tumor cell killing (IC50) concentration
Experimental: A. 6aa inhibits the growth of parental (MES-SA) and Paclitaxel resistant (MES-SA/DX5) cell lines with equal efficiency. The parental uterine sarcoma cells and the MDR positive (MES-SA/DX5) cells were plated into 6 well dishes and treated with various concentrations of 6aa and Paclitaxel for 96 h. The number of viable cells from duplicate plates was determined by trypan blue exclusion. B. Soft Agar Assays. MIA-PaCa-2 cells (1.0×10^5) were plated in soft agar containing various concentrations of each compound in triplicates. After three weeks of growth, the plates were stained for 48 h using 0.05% nitroblue tetrazolium solution. Representative plates were photographed using an Olympus stereoscope mounted with a Sony digital camera system (DKC5000, Sony Inc). Tissue Culture and Reagents: […] Cell lines were purchased from ATCC. Cell lines were routinely grown in DMEM or RPM1 (CellGro) supplemented with 10% fetal bovine serum (Atlas) and 1 unit/mL penicillin-streptomycin (Gibco). A number of tumor cell lines were tested using a dose response end point assay system. The cells were grown in either DMEM or RPMI supplemented with 10% fetal bovine serum and 1 unit/mL Penicillin-Streptomycin solution. […] Cell counts were determined from duplicate wells after 96 h of treatment. The total number of viable cells was determined by trypan blue exclusion.

[20] = test system: Raji; experiment: Tumor cell killing, Raji; type: cell-based, human; conditions: Burkitt's Lymphoma (B-cell), read-out: Tumor cell killing (IC50) concentration
[21] = test system: HCT-15; experiment: Tumor cell killing, HCT-15; type: cell-based, human; conditions: HCT-15, COLO-RECTAL; read-out: Tumor cell killing (IC50) concentration
Text: as §1

[22] = test system: U87; experiment: Tumor cell killing, U87; type: cell-based, human; conditions: U87, GLIOBLASTOMA; read-out: Tumor cell killing (IC50) concentration
Text: as §1

[23] = test system: A549; experiment: Tumor cell killing, A549; type: cell-based, human; conditions: A549, NSCLC; read-out: Tumor cell killing (IC50) concentration
Text: as §1

[24] = test system: MIA-PaCa2; experiment: Tumor cell killing, MIA-PaCa2; type: cell-based, human; conditions: MIA-PaCa2, PANCREATIC; read-out: Tumor cell killing (IC50) concentration
Text: as §1

[25] = test system: T47D; experiment: Tumor cell killing, T47D; type: cell-based, human; conditions: BREAST (ER+), read-out: Tumor cell killing (IC50) concentration
Text: as §1

[26] = DU145, 96 h treatment, read-out: DU145 IC50
[27] = DU145, PROSTATE (AR−), Table 2, read-out: Tumor cell killing (IC50) concentration
[28] = DLD1, 96 h treatment, read-out: DLD1 IC50
[29] = DLD-1, COLO-RECTAL, Table 2, read-out: Tumor cell killing (IC50) concentration
[30] = H157, 96 h treatment, read-out: H157 IC50
[31] = H157, NSCLC, Table 2, read-out: Tumor cell killing (IC50) concentration

| Structure (SMILES) | IC50 [1] | IC50 [2] | IC50 [3] | IC50 [4] | IC50 [6, 26] | IC50 [6, 27] | IC50 [7] | IC50 [8] | effect on mantle cell lymphoma cell lines [9] | IC50 [10, 28] | IC50 [10, 29] | IC50 [11] | IC50 [12] | IC50 [13] | IC50 [14, 30] | IC50 [14, 31] | IC50 [15] | IC50 [16] | growth inhibition of NCI 60 cell-line panel [17] | IC50 [18] | other results |
| --- | --- | --- | --- | --- | --- | --- | --- | --- | --- | --- | --- | --- | --- | --- | --- | --- | --- | --- | --- | --- | --- |
| COc1cc(OC)c(/C=C/S(=O)(=O)Cc2ccc(OC)c(O)c2)c(OC)c1 [6aa, (E)-2,4,6-Trimethoxystyryl-3-Hydroxy-4-Methoxybenzyl Sulfone] | 6 nM | 7 nM | 7 nM | 5 nM | 3 nM | 7 nM | 10 nM | 9 nM | altered the growth and cell cycle status | 3 nM | 8 nM | 4 nM | 5 nM | 8 nM | 4 nM | 7 nM | 6 nM | 7 nM | inhibited the growth of all of the tested cell lines | 7 nM | cytotoxic activity, SAR statement ([5]; four human tumor cell lines): best activity in the entire series; fold more active than 6s ([5]; in all four cell lines): 8 to 10 fold; IC50 [19]: 6 nM; IC50 [20]: 4 nM; IC50 [21]: 8 nM; IC50 [22]: 7 nM; IC50 [23]: 10 nM; IC50 [24]: 4 nM; IC50 [25]: 6 nM |
| COc1ccc(CS(=O)(=O)/C=C/c2c(OC)cc(OC)cc2OC)cc1 [6s, (E)-2,4,6-Trimethoxystyryl-4-Methoxybenzyl sulfone] | 8 nM | 20 nM | 40 nM | 9 nM | 25 nM | 25 nM | 20 nM | 15 nM | altered the growth and cell cycle status | 40 nM | 40 nM | 3 nM | 8 nM | 30 nM | 30 nM | 30 nM | 15 nM | 8 nM | inhibited the growth of all of the tested cell lines | 15 nM | fold more active than 6m ([5]; cell-killing assays): 20 fold; IC50 [19]: 10 nM; IC50 [20]: 9 nM; IC50 [21]: 20 nM; IC50 [22]: 40 nM; IC50 [23]: 20 nM; IC50 [24]: 8 nM; IC50 [25]: 25 nM |
